Consider five compounds from PMC5114172 (Journal of applied toxicology : JAT, 2016).

Read-outs that look alike come from different tables or passages of the source.

In one experiment the test system is MD-PBMCs. Briefly: IL-1β secretion. The experiment is classed as cell-based, human.
The next experiment has as its system monocyte-depleted PBMCs. To be noted: MD-PBMCs, ref Brown and Whalen, 2015, cited from earlier work.
Experiment [1] relates to highly purified human NKs. To be noted: NK cells, ref Brown and Whalen, 2015, cited from earlier work.

With `CC(C)(C)c1ccc(S(=O)(=O)/C=C/C#N)cc1` [BAY 11-7085, reference compound], the “Interleukin 1 beta secreted” value in the experiment with MD-PBMCs (donor F244, 24 h, BAY 11-7085 alone (0 DBT)) was 836 ± 8 pg/mL; in the experiment with MD-PBMCs (donor F245, 24 h, BAY 11-7085 alone (0 DBT)), 536 ± 51 pg/mL; in the experiment with MD-PBMCs (donor F333, 24 h, BAY 11-7085 alone (0 DBT)) it was 2039 ± 62 pg/mL; in the experiment on MD-PBMCs (donor F334, 24 h, BAY 11-7085 alone (0 DBT)), 703 ± 70 pg/mL. In addition, the “effect on baseline IL-1β secretion” value in the experiment with MD-PBMCs (inhibitor alone) is “varying effects”.
As for `CCC[CH2][Sn]([CH2]CCC)[CH2]CCC` [TBT, tributyltin], the “fold increase in IL-1β secretion” value in the experiment with monocyte-depleted PBMCs (donor F142, 24 h, 50 nM TBT) is 2.1 fold; with monocyte-depleted PBMCs (donor F142, 24 h, 100 nM TBT) it was 1.8 fold; in the experiment on monocyte-depleted PBMCs (donor F145, 24 h, 50 nM TBT), 1.8 fold; in the experiment on monocyte-depleted PBMCs (donor F145, 24 h, 100 nM TBT), 1.5 fold; in the experiment with monocyte-depleted PBMCs (third common donor (F152), 24 h, 50 nM TBT) it was 11 fold; in experiment [1] (donor KB169, 50 nM TBT), 7.7 fold. Besides, in experiment [1] (donor KB169, 100 nM TBT), the “fold increase in IL-1β secretion” value was 6.3 fold.
For the compound `Oc1ccc(-c2nc(-c3ccncc3)c(-c3ccc(F)cc3)[nH]2)cc1` [SB202190, reference compound], in the experiment on MD-PBMCs (3 of the 4 donors, in 1 donor it greatly increased secretion), the “effect on baseline secretion” value was “significantly decreased”. Moreover, the “Interleukin 1 beta secreted” value in the experiment on MD-PBMCs (donor F247, 24 h, SB202190 alone (0 DBT)) was 1613 ± 141 pg/mL; in the experiment on MD-PBMCs (donor F262, 24 h, SB202190 alone (0 DBT)), 149 ± 41 pg/mL; with MD-PBMCs (donor F372, 24 h, SB202190 alone (0 DBT)), 36 ± 3 pg/mL; in the experiment with MD-PBMCs (donor F385, 24 h, SB202190 alone (0 DBT)) it was 357 ± 61 pg/mL.
Turning to `CC(=O)N[C@@H](Cc1ccc(O)cc1)C(=O)N[C@H](C(=O)N[C@@H](C)C(=O)N[C@@H](CC(=O)O)C(=O)CCl)C(C)C` [Caspase-1 Inhibitor II, reference compound], the “effect on baseline IL-1β production” value in the experiment on MD-PBMCs (50 μM, cells from each donor, p<0.05) is “significantly decreased”. The “Interleukin 1 beta secreted” value in the experiment on MD-PBMCs (donor F240, 24 h, Caspase-1 inhibitor II 50 μM alone (0 DBT)) is 237 ± 19 pg/mL; in the experiment with MD-PBMCs (donor F242, 24 h, Caspase-1 inhibitor II 50 μM alone (0 DBT)), 460 ± 15 pg/mL; in the experiment with MD-PBMCs (donor F244, 24 h, Caspase-1 inhibitor II 50 μM alone (0 DBT)), 233 ± 11 pg/mL; with MD-PBMCs (donor F245, 24 h, Caspase-1 inhibitor II 50 μM alone (0 DBT)), 150 ± 8 pg/mL; in the experiment with MD-PBMCs (donor F254, 24 h, Caspase-1 inhibitor II 50 μM alone (0 DBT)) it was 39 ± 4 pg/mL.
As for `N#CC(=C(/N)Sc1ccccc1N)/C(C#N)=C(/N)Sc1ccccc1N` [U0126, reference compound], the “Interleukin 1 beta secreted” value with MD-PBMCs (donor F240, 24 h, U0126 50 μM alone (0 DBT)) was determined as 1756 ± 54 pg/mL; with MD-PBMCs (donor F242, 24 h, U0126 50 μM alone (0 DBT)), 479 ± 29 pg/mL; in the experiment with MD-PBMCs (donor F244, 24 h, U0126 50 μM alone (0 DBT)) it was 119 ± 28 pg/mL; in the experiment on MD-PBMCs (donor F245, 24 h, U0126 50 μM alone (0 DBT)), 255 ± 25 pg/mL.
